We go through 1 compound from patent publication US6534516B1, “Androgen receptor modulator compounds and methods” (Ligand Pharmaceuticals Incorporated, priority 1996, dated 2003).

Experiment [1] has as its system immature castrated male rat. Briefly: Immature castrated male rat model with testosterone silastic implant, ventral prostate and seminal vesicle weights. It is filed as in vivo. Particulars: for ED50: Rattus norvegicus, po, 72 h; for Seminal Vesicles weight / Ventral Prostate weight: 3 days. The source says: The activity of selected compounds of the present invention as AR antagonists was *~ investigated in an immature castrated male rat model. A recognized test of the antiandrogen activity of a given compound, as described in L. G. Hershberger et al., 83 Proc. Soc. Exptl. […] Similar approaches have been used in the rat and in hamsters. […] Dermatol.
The basis of this assay is the fact that male sexual accessory organs, such as the prostate and seminal vesicles, play an important role in reproductive function. […] See F. Labrie et al., 16 Clin. Invest. […] However, this is not a major pathway since, in both animals and humans, castration without concomitant adrenalectomy leads to almost complete involution of the prostate and seminal vesicles. […] See M. C. […] Since the male sex organs are the tissues most responsive to modulation by androgen activity, this model is used to determine the androgen-dependent growth of the sex accessory organs in immature castrated rats.
Immature male rats (50-60 g, 21 day-old Sprague-Dawley, Harlan) were castrated under metofane anesthesia. […] As a negative control, a group of castrated animals received empty 10 mm silastic implants. Animal groups were dosed for 3 days by oral gavage as follows:
At the end of the 3-day treatment, the animals were sacrificed, and the ventral prostates and seminal vesicles were collected and weighed. Organ weight data were normalized to body weight of each animal and expressed as mg/100 g body weight. Results were analyzed by analysis of variance followed by the Dunnett's test. Data were transformed to comply with the normality and variance homogeneity criteria required to utilize the analysis of variance and Dunnett's test. The following data transformations were used for the ventral prostate and seminal vesicle: square root and power 0.7 respectively. Thereafter, the data were fitted to a four-parameter logistic equation and potencies derived from the fitted estimates. The same data transformations were used for the equation-fitting phase of the data analysis.
The gain and loss of sexual organ weights reflect the changes of cell number (DNA content) and cell mass (protein content), depending upon the serum androgen concentrations. […] Therefore, measurement of organ wet weights is sufficient to indicate the bioactivity of androgens and androgen antagonists.

The target in experiment [2] is T1, PR (Homo sapiens, UniProt P06401).
T1 sequence (P06401 1-933): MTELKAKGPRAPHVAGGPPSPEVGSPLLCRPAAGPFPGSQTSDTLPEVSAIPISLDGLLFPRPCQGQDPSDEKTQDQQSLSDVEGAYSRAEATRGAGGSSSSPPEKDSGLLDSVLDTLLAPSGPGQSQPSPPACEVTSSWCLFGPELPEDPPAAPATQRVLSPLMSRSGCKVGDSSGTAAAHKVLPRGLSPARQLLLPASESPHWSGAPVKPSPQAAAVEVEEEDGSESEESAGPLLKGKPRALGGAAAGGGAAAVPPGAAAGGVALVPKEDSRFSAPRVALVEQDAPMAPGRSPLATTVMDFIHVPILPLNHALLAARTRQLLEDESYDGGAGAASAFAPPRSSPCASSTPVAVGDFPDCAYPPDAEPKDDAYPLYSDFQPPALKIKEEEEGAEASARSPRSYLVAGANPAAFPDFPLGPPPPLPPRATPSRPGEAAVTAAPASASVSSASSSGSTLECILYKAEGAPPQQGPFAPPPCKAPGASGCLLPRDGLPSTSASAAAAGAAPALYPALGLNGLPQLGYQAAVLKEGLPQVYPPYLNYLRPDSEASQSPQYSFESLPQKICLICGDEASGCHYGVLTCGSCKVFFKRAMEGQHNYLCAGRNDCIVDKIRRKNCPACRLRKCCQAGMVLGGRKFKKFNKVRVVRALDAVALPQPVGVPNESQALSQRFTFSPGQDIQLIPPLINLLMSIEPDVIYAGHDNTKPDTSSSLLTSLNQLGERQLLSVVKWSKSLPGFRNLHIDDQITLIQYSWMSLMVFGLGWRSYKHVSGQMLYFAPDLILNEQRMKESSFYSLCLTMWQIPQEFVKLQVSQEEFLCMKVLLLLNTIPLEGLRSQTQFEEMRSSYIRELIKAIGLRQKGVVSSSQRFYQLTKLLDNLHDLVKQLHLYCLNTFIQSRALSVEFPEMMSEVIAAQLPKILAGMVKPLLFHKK
Briefly: cell-based.

Experiment [3] addresses T2, MR (Homo sapiens, UniProt P08235).
T2 construct: expressed in transfected cells
T2 sequence (P08235 1-984): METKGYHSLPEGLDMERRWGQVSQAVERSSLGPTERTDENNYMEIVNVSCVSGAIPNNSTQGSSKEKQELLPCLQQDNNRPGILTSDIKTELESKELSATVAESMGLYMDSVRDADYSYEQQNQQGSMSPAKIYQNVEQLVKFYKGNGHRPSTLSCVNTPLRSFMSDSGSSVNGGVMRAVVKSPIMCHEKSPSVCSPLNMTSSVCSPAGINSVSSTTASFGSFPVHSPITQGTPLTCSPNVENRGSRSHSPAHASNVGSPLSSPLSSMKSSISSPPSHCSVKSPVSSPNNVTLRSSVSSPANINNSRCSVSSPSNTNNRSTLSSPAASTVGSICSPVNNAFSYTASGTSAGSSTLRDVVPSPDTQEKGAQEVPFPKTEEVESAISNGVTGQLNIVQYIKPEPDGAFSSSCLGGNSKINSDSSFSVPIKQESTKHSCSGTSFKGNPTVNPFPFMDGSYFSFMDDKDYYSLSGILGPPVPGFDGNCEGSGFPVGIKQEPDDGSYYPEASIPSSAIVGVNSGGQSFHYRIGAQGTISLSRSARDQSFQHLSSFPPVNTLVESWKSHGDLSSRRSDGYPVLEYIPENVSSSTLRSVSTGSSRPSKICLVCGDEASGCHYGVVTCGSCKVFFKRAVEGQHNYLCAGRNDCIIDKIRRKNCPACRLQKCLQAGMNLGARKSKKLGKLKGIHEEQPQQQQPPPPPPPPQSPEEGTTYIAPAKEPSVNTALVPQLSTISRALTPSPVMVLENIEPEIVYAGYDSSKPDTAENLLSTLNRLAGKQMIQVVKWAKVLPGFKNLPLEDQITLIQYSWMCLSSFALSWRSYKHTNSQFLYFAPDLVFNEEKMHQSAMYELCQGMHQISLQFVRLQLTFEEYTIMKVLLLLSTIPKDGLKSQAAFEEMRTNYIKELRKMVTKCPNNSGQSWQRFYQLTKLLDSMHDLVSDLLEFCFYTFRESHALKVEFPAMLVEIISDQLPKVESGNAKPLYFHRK
As to the kind of experiment: Co-transfection assay, cross-reactivity on MR. It is filed as cell-based.

Like-named read-outs stand apart in the source and are kept apart here.

One may read the ED50 as the dose at which the effect has come halfway, by size or by number of responders. As usually defined, the IC50 is the concentration needed to halve the response being measured. High values mean weaker potency, low ones greater potency. Regarding `CC1(C)CCc2cc3c(C(F)(F)F)c(F)c(=O)[nH]c3cc2N1` [Compound 105, 7-Fluoro-1,2,3,4-tetrahydro-2,2-dimethyl-6-trifluoromethyl-8-pyridono[5,6-g]quinoline], in experiment [1] (30 mg/kg), the “suppression of seminal vesicle weight relative to castrate levels (in words)” value is “complete suppression to castrate levels”. The “suppression of ventral prostate weight relative to castrate levels (in words)” value in experiment [1] (30 mg/kg) is “suppresses ventral prostate weight to castrate levels”. In addition, the ED50 in experiment [1] (read-out: Potency (ED50) Weighted Average ± SE, Seminal Vesicle Weight) stood at 7.5 ± 1.3 mg/kg; in experiment [1] (read-out: Potency (ED50) Weighted Average ± SE, Ventral Prostate Weight), 3.1 ± 0.7 mg/kg. The “Seminal Vesicles weight” value in experiment [1] (T implant + 0.1 mg/kg oral) was 28.1 ± 3.6 (5) mg/100 g body weight; in experiment [1] (T implant + 1 mg/kg oral), 27.4 ± 1.7 (5) mg/100 g body weight; in experiment [1] (T implant + 3 mg/kg oral) it was 24.9 ± 0.9 (5) mg/100 g body weight; in experiment [1] (T implant + 10 mg/kg oral), 15.2 ± 0.3 (5) mg/100 g body weight; in experiment [1] (T implant + 30 mg/kg oral), 7.1 ± 1.4 (5) mg/100 g body weight; in experiment [1] (T implant + 100 mg/kg oral), 7.6 ± 1.4 (5) mg/100 g body weight. Also, the “Ventral Prostate weight” value in experiment [1] (T implant + 0.1 mg/kg oral) is listed as 74.8 ± 5.4 (5) mg/100 g body weight; in experiment [1] (T implant + 1 mg/kg oral) it was 63.6 ± 6.6 (5) mg/100 g body weight; in experiment [1] (T implant + 3 mg/kg oral), 48.4 ± 6.6 (5) mg/100 g body weight; in experiment [1] (T implant + 10 mg/kg oral), 40.0 ± 1.3 (5) mg/100 g body weight; in experiment [1] (T implant + 30 mg/kg oral) it was 24.6 ± 2.0 (5) mg/100 g body weight; in experiment [1] (T implant + 100 mg/kg oral), 23.6 ± 2.2 (5) mg/100 g body weight. Besides, the 50% inhibitory concentration (IC50) was 160 nM in experiment [2] and 2260 nM in experiment [3].
